Laboratory results from ChEMBL document CHEMBL1201862, “PubChem BioAssay data set” (2004).
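Following 48 hours of exposure in 96-well plates, responses at five concentrations were used to interpolate endpoints linearly. GI50: concentration for 50% inhibition of growth.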 The source made the active and inactive calls. No stated cut-off is given here; in the data, active = GI50 up to about 1.1 µM and inactive = higher.

Key:
Experiment in all cases: NCI tumour cell line growth inhibition, 48 h
DU-145 = system: DU-145
Malme-3M = system: Malme-3M
KM12 = system: KM12
HCT-15 = system: HCT-15
CCRF-CEM = system: CCRF-CEM
OVCAR-3 = system: OVCAR-3
T47D = system: T47D
SF-539 = system: SF-539
NCI-H226 = system: NCI-H226
U-251 = system: U-251
MDA-N = system: MDA-N
UO-31 = system: UO-31
MDA-MB-231 = system: MDA-MB-231
NCI-H460 = system: NCI-H460
A549 = system: A549
HOP-92 = system: HOP-92
OVCAR-5 = system: OVCAR-5
HCT-116 = system: HCT-116
M14 = system: M14
NCI-H23 = system: NCI-H23
MCF7 = system: MCF7
RPMI-8226 = system: RPMI-8226
SK-MEL-5 = system: SK-MEL-5
OVCAR-4 = system: OVCAR-4
LOX IMVI = system: LOX IMVI
A498 = system: A498
SN12C = system: SN12C
NCI/ADR-RES = system: NCI/ADR-RES
CAKI-1 = system: CAKI-1
SF-268 = system: SF-268
SF-295 = system: SF-295
PC-3 = system: PC-3
RXF 393 = system: RXF 393
COLO 205 = system: COLO 205
K562 = system: K562
SNB-19 = system: SNB-19
Hs-578T = system: Hs-578T
SNB-75 = system: SNB-75
UACC-257 = system: UACC-257
NCI-H522 = system: NCI-H522
HT-29 = system: HT-29
EKVX = system: EKVX
SK-OV-3 = system: SK-OV-3
TK-10 = system: TK-10
SR = system: SR
IGROV-1 = system: IGROV-1
SW-620 = system: SW-620
SK-MEL-28 = system: SK-MEL-28
UACC-62 = system: UACC-62
OVCAR-8 = system: OVCAR-8
ACHN = system: ACHN
786-0 = system: 786-0
HL-60 = system: HL-60
MOLT-4 = system: MOLT-4
BT-549 = system: BT-549
MDA-MB-435 = system: MDA-MB-435
HOP-62 = system: HOP-62

C/C(=C/CC[C@](C)(OC1OC(CO)C(O)C(O)C1O)[C@H]1CC[C@]2(C)[C@@H]1CC[C@@H]1[C@@]3(C)CC[C@H](O)C(C)(C)[C@@H]3C[C@H](O)[C@]12CO)CO (some centres not stated)
GI50 (DU-145): > 100 µM (inactive) | GI50 (Malme-3M): > 100 µM (inactive) | GI50 (KM12): > 100 µM (inactive) | GI50 (HCT-15): > 100 µM | GI50 (CCRF-CEM): > 100 µM (inactive) | GI50 (OVCAR-3): > 100 µM (inactive) | GI50 (T47D): > 100 µM (inactive) | GI50 (SF-539): > 100 µM (inactive) | GI50 (NCI-H226): > 100 µM (inactive) | GI50 (U-251): > 100 µM (inactive) | GI50 (MDA-N): > 100 µM (inactive) | GI50 (UO-31): > 100 µM (inactive) | GI50 (MDA-MB-231): > 100 µM (inactive) | GI50 (NCI-H460): > 100 µM (inactive) | GI50 (A549): > 100 µM (inactive) | GI50 (HOP-92): > 100 µM (inactive) | GI50 (OVCAR-5): > 100 µM (inactive) | GI50 (HCT-116): > 100 µM (inactive) | GI50 (M14): > 100 µM (inactive) | GI50 (NCI-H23): > 100 µM (inactive) | GI50 (MCF7): > 100 µM (inactive) | GI50 (RPMI-8226): > 100 µM (inactive) | GI50 (SK-MEL-5): > 100 µM (inactive) | GI50 (OVCAR-4): > 100 µM (inactive) | GI50 (LOX IMVI): > 100 µM (inactive) | GI50 (A498): > 100 µM (inactive) | GI50 (SN12C): > 100 µM (inactive) | GI50 (NCI/ADR-RES): > 100 µM (inactive) | GI50 (CAKI-1): > 100 µM (inactive) | GI50 (SF-268): > 100 µM (inactive) | GI50 (SF-295): > 100 µM (inactive) | GI50 (PC-3): > 100 µM (inactive) | GI50 (RXF 393): > 100 µM (inactive) | GI50 (COLO 205): > 100 µM (inactive) | GI50 (K562): > 100 µM (inactive) | GI50 (SNB-19): > 100 µM (inactive) | GI50 (Hs-578T): > 100 µM (inactive) | GI50 (SNB-75): > 100 µM (inactive) | GI50 (UACC-257): > 100 µM (inactive) | GI50 (NCI-H522): > 100 µM (inactive) | GI50 (HT-29): > 100 µM (inactive) | GI50 (EKVX): > 100 µM (inactive) | GI50 (SK-OV-3): > 100 µM (inactive) | GI50 (TK-10): > 100 µM (inactive) | GI50 (SR): > 100 µM (inactive) | GI50 (IGROV-1): > 100 µM (inactive) | GI50 (SW-620): > 100 µM (inactive) | GI50 (SK-MEL-28): > 100 µM (inactive) | GI50 (UACC-62): > 100 µM (inactive) | GI50 (OVCAR-8): > 100 µM (inactive) | GI50 (ACHN): > 100 µM (inactive) | GI50 (786-0): > 100 µM (inactive) | GI50 (HL-60): > 100 µM (inactive) | GI50 (MOLT-4): > 100 µM (inactive) | GI50 (BT-549): > 100 µM (inactive) | GI50 (MDA-MB-435): > 100 µM (inactive) | GI50 (HOP-62): > 100 µM (inactive)
